Tests used:
[1] = tested on: Human dermal fibroblasts (HDFs); assay: Microarray analysis of genome-wide gene expression; assay type: cell-based; details: 1 μM effector, 48 hours, vs 0.5% DMSO
[2] = tested on: HDAC (nucleus extracts of HeLa cells); assay: HDAC inhibitory activity evaluation (Color de Lys Substrate Deacetylation); assay type: biochemical; details: 0.2 mM substrate, 37° C., 30 minutes, absorption at 405 nm
Protocol: Trichostatin A (TSA), SAHA, and CTB were evaluated for their inhibitory activity against Color de Lys™ Substrate Deacetylation using nucleus extracts of HeLa cells. The nucleus extracts of HeLa cells were incubated with 0.2 mM of a substrate at 37° C. After 30 minutes, the reaction was terminated. Then, absorption at 405 nm was measured using Color de Lys™ Developer and thereby evaluated as HDAC inhibitory activity. The strong HDAC inhibitor trichostatin A (TSA) was compared with SAHA and CTB in terms of HDAC inhibitory activity.

With `CCOc1ccccc1C(=O)Nc1ccc(Cl)c(C(F)(F)F)c1` [CTB, N-(4-chloro-3-(trifluoromethyl)phenyl)-2-ethoxybenzamide] the “gene groups whose expression is activated (microarray clustering analysis)” value [1] was “activates the expression of a connective tissue disorder-related gene group” and the HDAC inhibitory activity [2] was “lack HDAC inhibitory activity”.
`O=C(CCCCCCC(=O)Nc1ccccc1)NO` [SAHA, suberoylanilide hydroxamic acid] was tested, and the “gene groups whose expression is activated (microarray clustering analysis)” value [1] was “activates the expression of cancer- and cardiovascular disease-related gene groups”.

Reference: patent publication US11097009B2, “CTB-PI polyamide conjugate for activating expression of specific gene” (KYOTO UNIVERSITY, priority 2015, dated 2021)
